Source: PubChem BioAssay (NCI)
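In this assay, cells in 96-well plates receive the compound at five concentrations for 48 hours. Endpoints are linearly interpolated between the surrounding concentrations. The concentration for 50% growth inhibition is given as GI50. The concentration for full growth arrest is given as TGI.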

What was measured:
Assay in all cases: NCI anticancer screen, dose series, 48 h
786-0 renal = system: 786-0 renal
A498 renal = system: A498 renal
A549 NSCLC = system: A549 NSCLC
ACHN renal = system: ACHN renal
BT-549 breast = system: BT-549 breast
CAKI-1 renal = system: CAKI-1 renal
CCRF-CEM leukemia = system: CCRF-CEM leukemia
COLO 205 colon = system: COLO 205 colon
DU-145 prostate = system: DU-145 prostate
EKVX NSCLC = system: EKVX NSCLC
HCC-2998 colon = system: HCC-2998 colon
HCT-116 colon = system: HCT-116 colon
HCT-15 colon = system: HCT-15 colon
HL-60(TB) leukemia = system: HL-60(TB) leukemia
HOP-62 NSCLC = system: HOP-62 NSCLC
HOP-92 NSCLC = system: HOP-92 NSCLC
HS 578T breast = system: HS 578T breast
HT29 colon = system: HT29 colon
IGROV1 ovarian = system: IGROV1 ovarian
K-562 leukemia = system: K-562 leukemia
KM12 colon = system: KM12 colon
LOX IMVI melanoma = system: LOX IMVI melanoma
M14 melanoma = system: M14 melanoma
MALME-3M melanoma = system: MALME-3M melanoma
MCF7 breast = system: MCF7 breast
MDA-MB-231 breast = system: MDA-MB-231 breast
MDA-MB-435 = system: MDA-MB-435
MOLT-4 leukemia = system: MOLT-4 leukemia
NCI-H226 lung = system: NCI-H226 lung

Fc1ccc(-c2cc3nc(C(Cl)Cl)nc(-c4ccco4)n3n2)cc1
GI50 (786-0 renal): 2770 nM
TGI (786-0 renal): 27500 nM
GI50 (A498 renal): 1210 nM
TGI (A498 renal): 2620 nM
GI50 (A549 NSCLC): 770 nM
TGI (A549 NSCLC): 5370 nM
GI50 (ACHN renal): 296 nM
TGI (ACHN renal): 1340 nM
GI50 (BT-549 breast): 35300 nM
TGI (BT-549 breast): > 100000 nM
GI50 (CAKI-1 renal): 948 nM
TGI (CAKI-1 renal): 4360 nM
GI50 (CCRF-CEM leukemia): > 100000 nM
TGI (CCRF-CEM leukemia): > 100000 nM
GI50 (COLO 205 colon): 624 nM
TGI (COLO 205 colon): 2480 nM
GI50 (DU-145 prostate): 303 nM
TGI (DU-145 prostate): 954 nM
GI50 (EKVX NSCLC): 1280 nM
TGI (EKVX NSCLC): 4860 nM
GI50 (HCC-2998 colon): 400 nM
TGI (HCC-2998 colon): 1650 nM
GI50 (HCT-116 colon): 310 nM
TGI (HCT-116 colon): 1100 nM
GI50 (HCT-15 colon): 486 nM
TGI (HCT-15 colon): 16400 nM
GI50 (HL-60(TB) leukemia): 300 nM
GI50 (HOP-62 NSCLC): 504 nM
TGI (HOP-62 NSCLC): 2840 nM
GI50 (HOP-92 NSCLC): 541 nM
TGI (HOP-92 NSCLC): 3370 nM
GI50 (HS 578T breast): 1450 nM
TGI (HS 578T breast): 4910 nM
GI50 (HT29 colon): 312 nM
TGI (HT29 colon): 1710 nM
GI50 (IGROV1 ovarian): 11600 nM
TGI (IGROV1 ovarian): > 100000 nM
GI50 (K-562 leukemia): 1790 nM
TGI (K-562 leukemia): > 100000 nM
GI50 (KM12 colon): 877 nM
TGI (KM12 colon): 3660 nM
GI50 (LOX IMVI melanoma): > 100000 nM
TGI (LOX IMVI melanoma): > 100000 nM
GI50 (M14 melanoma): > 100000 nM
TGI (M14 melanoma): > 100000 nM
GI50 (MALME-3M melanoma): > 100000 nM
TGI (MALME-3M melanoma): > 100000 nM
GI50 (MCF7 breast): 273 nM
TGI (MCF7 breast): 3240 nM
GI50 (MDA-MB-231 breast): 368 nM
TGI (MDA-MB-231 breast): 2330 nM
GI50 (MDA-MB-435): 1540 nM
TGI (MDA-MB-435): 6820 nM
GI50 (MOLT-4 leukemia): > 47400 nM
TGI (MOLT-4 leukemia): > 100000 nM
GI50 (NCI-H226 lung): > 89500 nM
